In patent US5776720A, “Assay reagent” (priority 1995, dated 1998):
Counter-ions that a name gives are not always drawn. Each block holds one molecule with its values, some of them ahead of it.

Key:
native free fluorescence = assay type: physicochemical
From the text: Assays for peptidases using assay compounds generate fluorescence generally in the range of 10^-5 to 10^-6 Molar free rhodamine 110. Therefore, it is preferred that the free rhodamine 110 and blocked peptide impurities in the assay reagent should be removed to a concentration of less than the fluorescence generated by about 1×10^-6 M and more preferably less than the fluorescence generated by about 10^-7 Molar free indicator group. This amounts to a 100,000 photon count using rhodamine 110 as a standard at 10^-7 -10^-8 M, preferably 5×10^-8 M in a 1 cm path length cuvette when measured over 10 min. on a photon counting spectrofluorometer manufactured by the SLM Company of Chicago, Ill. This corresponds to a use level on the flow cytometer where no cellular false positive can be detected for a 10 minute period at the highest sensitivity setting. […] The presence of impurities causes a decrease in the storage stability of the compound, resulting in an increased autohydrolysis which leads to increased background fluorescence. A compound should be free of impurities such that when the compound (or reagent containing the compound) is stored at 4° C. for 30 days, preferably 90 days, more preferably 180 days, most preferably one year, the background fluorescence increases less than 10% , preferably less than 5% , most preferably less than 1% over these time periods, respectively. […]

autohydrolysis rate = assay type: physicochemical; conditions: 37° C., 1 cm path length
Protocol: A reaction run using the same data collection window without the enzyme source will determine auto-hydrolysis of the substrate and therefore the potential for negative cells to absorb the dye non-specifically resulting in false positive.
(§1) The acetate and tartrate salts thus prepared have the following characteristics, respectively: native free fluorescence, 63,000 and 61,000 photons; autohydrolysis rate when measured at 37° C. using a 1 cm path length, -5.56 and -3.8 change in photons per second; and enzymatic reaction rate of cathepsin B at 37° C., +128 and +138 change in photons per second.

cathepsin B = assay: enzymatic reaction rate of cathepsin B; assay type: biochemical; conditions: 37° C.
Protocol: as §1

aminopeptidase = assay: effect of calcium chloride on aminopeptidase reaction with (H-L-Asp)2 rhodamine 110; assay type: biochemical; conditions: approximately 10 mM
From the text: The chemical nature of the buffer is important to the reactivity of the assay compound with the cellular enzymes. […] In addition, the assay compound hydrolysis by the enzyme occurs at an increased rate of reaction.

enzyme = assay: modulator effect on sensitivity of substituted rhodamine 110 substrates; assay type: cell-based; conditions: 1 mM
From the text: Modulators are components used to […] the sensitivity of the enzyme for the leaving group. The modulators speed up or slow down the activity of an enzyme by changing the active site. […] Preferred modulators for particular enzymes are included in Table 1.

lymphocytes = assay: Normal leukocyte enzyme activity (Table 3A), lymphocytes; assay type: cell-based, human; set-up: unit not given here; conditions: normal donors
monocytes = assay: Normal leukocyte enzyme activity (Table 3A), monocytes; assay type: cell-based, human; set-up: unit not given here; conditions: normal donors
granulocytes = assay: Normal leukocyte enzyme activity (Table 3A), granulocytes; assay type: cell-based, human; set-up: unit not given here; conditions: normal donors
amino peptidase = assay: immune competence, amino peptidase activity in Ficoll prepared lymphocytes (FIG. 4); assay type: cell-based; conditions: acute lympholytic Ficoll prepared lymphocytes, FIG. 4B
From the text: The cell's ability to fight off an invader lies within its genetics and therefore cell type. The "readiness" however of any genetically capable group of cells to defend is different. A measure of this "readiness" is manifest in the available proteolytic enzymes contained within vacuoles or on the surface of the cell. The assay compound hydrolysis rate increases with increased mass of enzymes giving a picture of immune competence both in number of cells and activity level. […] Images were generated using Universal Imaging.

dipeptide reagent = assay: effect of added sodium chloride on dipeptide reagent; assay type: cell-based; conditions: addition of 7 mM, pH range 6.5 to 8.7
From the text: Inhibitors and poisons (or toxins) are components that can be added to reduce the activity of non-targeted enzymes that provide competing reactions for the leaving group. Inhibitors are usually very selective for a particular enzyme. For example, EDTA only works with enzymes requiring Ca^+2, Mg^+2 and some other metals. […] Preferred inhibitors for particular enzymes are included in Table 1.

SMILES: CC(C)C[C@H](N)C(=O)NCC(=O)Nc1ccc2c(c1)Oc1cc(NC(=O)CNC(=O)[C@@H](N)CC(C)C)ccc1C21OC(=O)c2ccccc21 [acetate, (H-LEU-GLY)2 Rhodamine 110 Acetate]
native free fluorescence (native free fluorescence): 63,000 photons | autohydrolysis rate (autohydrolysis rate): -5.56 change in photons per second | enzymatic reaction rate of cathepsin B (cathepsin B): +128 change in photons per second

SMILES: [Ca+2].[Cl-].[Cl-] [calcium chloride]
effect on aminopeptidase reaction with (H-L-Asp)2 rhodamine 110 (aminopeptidase): inhibitory to the enzyme reaction

effect on sensitivity of leaving group for enzyme (enzyme; substrates with Ala-Gly and Leu-Gly): does not change the sensitivity | effect on sensitivity of rhodamine 110 substrates (enzyme; substrates with Pro, Gly, Gln-Ser, Val-Lys-Val-Lys, Ala-Ala, Ala-Ala-Ala-Ala): decreases the sensitivity
SMILES: O[C@H](CS)[C@@H](O)CS [dithioerythritol (DTE), dithioerythritol]

SMILES: CC(C)C[C@H](N)C(=O)NCC(=O)Nc1ccc2c(c1)Oc1cc(NC(=O)CNC(=O)[C@@H](N)CC(C)C)ccc1C21OC(=O)c2ccccc21 [tartrate, (H-LEU-GLY)2 Rhodamine 110 Tartrate]
autohydrolysis rate (autohydrolysis rate): -3.8 change in photons per second | enzymatic reaction rate of cathepsin B (cathepsin B): +138 change in photons per second

amino peptidase activity (amino peptidase): lost their enzymatic activity
SMILES: CC(C)C[C@H](N)C(=O)Nc1ccc2c(c1)Oc1cc(NC(=O)[C@@H](N)CC(C)C)ccc1C21OC(=O)c2ccccc21 [LEU, (Leu)2 Rho 110]
NORMAL LEUKOCYTE ENZYME ACTIVITY, LYMPHS Mean (lymphocytes): 34.94 | NORMAL LEUKOCYTE ENZYME ACTIVITY, MONOS Mean (monocytes): 120.66 | NORMAL LEUKOCYTE ENZYME ACTIVITY, GRANS Mean (granulocytes): 80.19

SMILES: [Cl-].[Na+] [sodium chloride]
effect on dipeptide reagent (dipeptide reagent): slightly inhibitory effect
